Patent publication US20170059573A1, “METHOD OF DETECTING PEROXYNITRITE USING A COMPLEX OF A SACCHARIDE AND AN ARYLBORONATE-BASED FLUORESCENT PROBE” (UNIVERSITY OF BATH, priority 2014, published 2017)

Assays:
[1] = pH titration of fluorescence intensity; format: physicochemical; conditions: probe 2 μM
Experimental: As shown by FIG. 2, the fluorescence intensity of the probe 1 decreased at pH values above 8.0. […] Thus, the probe can be expected to work well under physiological conditions (pH 7.30, PBS buffer). In the presence of D-fructose (100 mM), the fluorescence of the formed 1-D-fructose complex increases due to the enhanced N—B interaction at different pH values. The fluorescence of 1-D-fructose complex decreases over a pH range of 3-11.

[2] = Fluorescence response to D-fructose binding; conditions: probe 2 μM; D-fructose 100 mM; pH 7.3 buffer
Experimental: (a) Fluorescence spectra of probe 1 (2 μM) and then addition of D-fructose (100 mM). After addition of D-fructose, the mixtures were stirred for 10 min; (b) Probe 1-D-fructose complex (probe 1, 2 μM; D-fructose, 100 mM) in different concentration of ONOO^−. After addition of peroxynitrite, the mixtures were stirred for 5 min;
The saccharide-boronic acid complexes were formed by mixing free boronic acid (2 μM) with D-fructose (100 mM) for 10 min in situ.
In the case of probe 1, a significant “off-on” signal response is seen on binding with D-fructose due to an inhibition of PET mechanism. From FIG. 3a, the maximum fluorescence intensity of probe 1 (2 μM, λem=525 nm) is increased two-fold in the presence of D-fructose (100 mM) at pH 7.3 buffer solution.

[3] = UV-Vis absorption spectra; format: physicochemical
Experimental: While the presence of ONOO^− (100 μM), a new peak (A=0.021) at 360 nm developed due to the formation of phenol.

[4] = Fluorescence response to hydrogen peroxide
Experimental: The pH was adjusted from 7.30 to 8.10 using aqueous sodium hydroxide (10 N); (b) Fluorescence spectra of probe 1-D-fructose complex (probe 1, 2 μM; D-fructose, 100 mM) in the presence of hydrogen peroxide (1 mM) at pH 7.3 buffer solution. The spectra were collected at increasing reaction times with excitation at 410 nm (Ex slit: 5.0, Em slit: 5.0);
The concentration of hydrogen peroxide (H2O2) was determined from the absorption at 240 nm (ε=43.6 M^−1 cm^−1).
Since boronate-based derivatives can be oxidized to phenol by H2O2 and ONOO^−, it is important to discriminate them by fluorescence tools. Independently, the present inventors tested the responses of probe 1 and 1-D-fructose complex towards hydrogen peroxide (FIG. 7). With the free boronic acid system, the fluorescence of probe 1 (2 μM) increased to F/F0=ca. 1.59 in the presence of hydrogen peroxide (100 μM) over 1 h at pH 7.30 buffer solution. When the solution was adjusted to pH 8.10, the fluorescence decreased most probably due to the decomposition of the intermediate to phenol (FIG. 7a). This is different from the process observed for the detection of ONOO^− in which boronic acid was transformed into phenol quickly and directly.
The fluorescence reaction of 1-D-fructose complex towards ONOO^− amd H2O2 at pH 5.0 buffer solution in order to mimic the acidic conditions found in cancer cells (FS5) was also studied. […]

[5] = Fluorescence titration with peroxynitrite; conditions: saccharide free probe 2 μM; peroxynitrite 60 μM; pH 7.3 PBS

With `CN(CCNc1ccc2c3c(cccc13)C(=O)N(CCOCCO)C2=O)Cc1ccccc1B(O)O` [probe 1] the “pH effect on fluorescence intensity” value ([1]; pH range between 3.0 and 8.0) was “minimal effect”, the “pH effect on fluorescence intensity” value ([1]; pH values above 8.0) was “decreased” and the “increase of maximum fluorescence intensity (λem=525 nm) in presence of D-fructose” value [2] was “two-fold”. The “maximum absorption A at 440 nm” value ([3]; free boronic acid probe 2 μM) was 0.026, the “absorption A of new peak at 360 nm” value ([3]; in presence of ONOO− 100 μM) was 0.021 and the “absorption A at the maximum absorption wavelength” value ([3]; probe 2 μM with D-fructose 100 mM) was 0.019. The F/F0 ([4]; free boronic acid probe 2 μM, hydrogen peroxide 100 μM over 1 h, pH 7.30 buffer) was “ca. 1.59”, the “fluorescence after adjusting the solution to pH 8.10” value ([4]; probe 2 μM after H2O2 100 μM, pH adjusted from 7.30 to 8.10) was “decreased” and the F/F0 [5] was “ca. 0.10”.
